Source: paper PMC6908736, “Toxic Tau Oligomers Modulated by Novel Curcumin Derivatives” (Scientific Reports, 2019)
Read-outs that look alike come from different tables or passages of the source.

Tests used:
[1] = system: human neuroblastoma SH-SY5Y cell line; assay: MTS cytotoxicity of curcumin derivatives (dose-response); assay type: cell-based; design: LogIC50 (cell viability): unit not given here; details: for IC50: Homo sapiens; for LogIC50 (cell viability): n = 3
From the text: Six compounds were selected due to their higher activity in modulating toxic TauO and subjected to additional in vitro testing to validate their effects on TauO (Fig. 2B). […] Compounds CL3,8 were obtained through a double aldol condensation on the diacetyl of the appropriate aromatic aldehyde 1[58]. Similarly, HemiC9 was obtained by means of Claisen-Schmidt Aldol condensation of acetone under basic conditions (Fig. 2C)[59]. Heterocyclic derivative CH8 was obtained in a two-step procedure from the corresponding cinnamic acid derivative 2 (Fig. 2D)[60]. […] This method allows the obtainment of target products avoiding the use of protecting groups. One of the criteria used to select these small molecules was evaluating their toxicity profile. The cytotoxicity of each curcumin derivative was examined by exposing the cultured human neuroblastoma SH-SY5Y cell line to a continuous range of small molecule concentrations (0–800 μM) and monitoring cell survival after 24 hours of treatment by an MTS assay. […] Human neuroblastoma SH-SY5Y cells (ATCC CRL-2266) were maintained in DMEM and grown to confluence in 96-well plates as previously described. […] The dose-response curve was used to calculate the concentration of the compound required for 50% inhibition of cell viability (IC50). Cell viability was corrected by the vehicle background. All measurements were performed in triplicate. The cytotoxic effect was determined using MTS assay (G3582, Promega) for assessing cell viability following the manufacturers’ instructions. Optical density (OD) was measured at 490 nm with POLARstar OMEGA plate reader (BMG Labtechnologies). Cell viability was calculated as the percentage of the OD value of treated cells compared to untreated controls, according to the following equation: Viability = (OD SAMPLE/OD CONTROL) × 100%.

[2] = molecular target: T1, preformed recombinant tau oligomers (TauO) (Homo sapiens, UniProt P10636); assay: Western blot of tau oligomers with and without compounds; assay type: biochemical; details: curcumin 1:5 and 1:10 molar ratio
T1 construct: made in house
T1 sequence (P10636 1-441 isoform P10636-8): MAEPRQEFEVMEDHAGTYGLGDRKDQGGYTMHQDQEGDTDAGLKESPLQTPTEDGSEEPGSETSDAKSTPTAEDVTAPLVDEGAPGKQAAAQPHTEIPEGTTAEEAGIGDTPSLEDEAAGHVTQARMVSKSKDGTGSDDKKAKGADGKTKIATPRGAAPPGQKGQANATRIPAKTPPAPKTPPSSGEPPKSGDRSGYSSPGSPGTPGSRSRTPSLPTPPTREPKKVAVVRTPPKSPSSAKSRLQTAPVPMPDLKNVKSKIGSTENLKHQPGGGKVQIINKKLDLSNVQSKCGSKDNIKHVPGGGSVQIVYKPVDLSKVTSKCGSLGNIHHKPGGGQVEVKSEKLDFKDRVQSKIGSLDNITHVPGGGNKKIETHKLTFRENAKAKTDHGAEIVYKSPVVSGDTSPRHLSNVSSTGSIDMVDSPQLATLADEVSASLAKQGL
Protocol: The tau pellet was treated with 8 M urea followed by overnight dialysis against 1X phosphate-buffered saline (PBS) pH 7.4. Tau concentration was measured using bicinchoninic acid protein assay (Pierce BCA Protein Assay Kit, 23225, Thermo Fisher Scientific) and normalized to 1 mg/mL by adding 1X PBS. Aliquots of tau monomer in PBS were stored at -20 °C. Each 300 µL of tau stock (0.3 mg) was added to 700 µL of 1X PBS and incubated for 1 hour on an orbital shaker at room temperature. After shaking, the resulting tau oligomers were purified by fast protein liquid chromatography (FPLC, Superdex 200 Increase 10/300 column, Amersham Biosciences).
(§1) A volume of 100 μL of tau oligomers (1 µg/μL) was incubated with curcumin (1:5 and 1:10 molar ratio) and curcumin derivatives (1:5 molar ratio). Compounds were dissolved in EtOH 75%/DMSO (5:1) at a final concentration of 5 mM and diluted in 1X PBS or ddH2O for incubation or toxicity assay (final concentration 5 μM). Tau oligomers in the presence of the small molecules and controls were incubated on an orbital shaker, without stirring, for 16 hours under oligomerization conditions as previously described.
An amount of 3 µg of each sample were resolved on a pre-cast NuPAGE 4–12% Bis-Tris Gels for SDS-PAGE (NP0335BOX, Invitrogen) and transferred to nitrocellulose membranes. […]

[3] = molecular target: T1, preformed recombinant tau oligomers (TauO); assay: Direct ELISA, dot blot and filter trap of tau oligomers (T22, TOMA1, Tau 5); assay type: biochemical; details: curcumin 1:5 and 1:10 molar ratio, vs untreated TauO
Protocol: as §1
Dot blot assay to detect tau oligomers in the absence or presence of small molecules was performed as previously described. Briefly, 1.5 μl of each end-product reaction was applied onto nitrocellulose membranes and then blocked with 10% nonfat milk in TBS-T overnight at 4 °C. The next day, membranes were probed with the oligomer-specific tau antibodies, T22 (1:250), TOMA1(1:200) and total tau antibody, Tau 5, (1:10000) diluted in 5% nonfat milk for 1 hour at RT. […]
ELISA assay was conducted as previously described. […] Plates were washed three times with TBS-T and developed with 3,3,5,5-tetramethylbenzidine (TMB + Substrate- Chromogen, S1599, Dako) The reaction was stopped using 100 μL of 1 M HCl and absorbance was read at 450 nm using POLARstar OMEGA plate reader. […]

[4] = system: SH-SY5Y cells exposed to TauO; assay: MTS assay of TauO-induced toxicity in SH-SY5Y; assay type: cell-based, human; details: 2 µM TauO, curcumin final concentration 10 μM, 24 hours
Protocol: Human neuroblastoma SH-SY5Y cells (ATCC CRL-2266) were maintained in DMEM and grown to confluence in 96-well plates as previously described. […] The dose-response curve was used to calculate the concentration of the compound required for 50% inhibition of cell viability (IC50).
Cell viability was corrected by the vehicle background. All measurements were performed in triplicate. The cytotoxic effect was determined using MTS assay (G3582, Promega) for assessing cell viability following the manufacturers’ instructions. Optical density (OD) was measured at 490 nm with POLARstar OMEGA plate reader (BMG Labtechnologies). Cell viability was calculated as the percentage of the OD value of treated cells compared to untreated controls, according to the following equation: Viability = (OD SAMPLE/OD CONTROL) × 100%.

[5] = MTS, 0–800 μM, 24 hours, n = 3, read-out: IC50 (cell viability)

Compound | IC50 [1, 5] [µM] | LogIC50 (cell viability) ([1]; MTS, 0–800 μM, 24 hours) | also measured
CN(C)c1ccc(/C=C/c2nnc(/C=C/c3ccc(N(C)C)cc3)o2)cc1 [CH8] | 110 | 2.042 | –
O=C(/C=C/c1ccc(Cl)cc1)COC(=O)/C=C/c1ccc(Cl)cc1 [Cal7] | – | 2.281 | IC50 ([1]; 24 h, read-out: IC50 (cell viability)): 191 µM
O=C(/C=C/c1ccccc1Cl)C(=O)/C=C/c1ccccc1Cl [CL8] | 54.5 | 1.737 | –
CC(=O)/C=C/c1ccc(C)cc1 [HemiC9] | 124 | – | –
COc1cc(/C=C/C(=O)CC(=O)/C=C/c2ccc(O)c(OC)c2)ccc1O [curcumin] | – | – | aggregation state of TauO by Western blot (T22, Tau 5, Tau 13) [2]: promoting the formation of higher molecular weight tau aggregates; oligomer level, T22 immunoreactivity (direct ELISA and dot blot) [3]: significant decrease in oligomers; cell viability after TauO in the presence of compound [4]: rescued cells from TauO-induced toxicity
O=C(/C=C/c1ccc(F)cc1)C(=O)/C=C/c1ccc(F)cc1 [CL3] | 56.1 | 1.749 | –
